# Reference: US20080221200A1, “Combination of Organic Compounds” (priority 2005, published 2008)
# Columns and labels:
# [1] = tested on: non-obese diabetic (NOD) mice; assay: Incidence of insulitis in NOD mice, supplementation in drinking water during pregnancy and lactation; type: in vivo; details: maternal drinking water through pregnancy and lactation, examined at 12 weeks of age
# Excerpt: F. Effect of Vildagliptin and the combination of “Vildagliptin+compound A” on incidence of Insulitis Diabetes-prone non-obese diabetic (NOD) mice in which females develop a 90% rate of autoimmune diabetes by the age of 25 weeks is studied in order to determine the effect of Vildagliptin and the combination of “Vildagliptin+compound A” on insulitis onset and development. Insulitis initiates at 3-5 weeks of age in NOD mice, as leukocytes begin to infiltrate around ducts and venules in both female and male mice. These infiltrates progress toward the islets, which become surrounded by concentric layers of pen-insular lymphocytes (non-destructive peri-insulitis). Destructive intra-islet insulitis then occurs, leading to extensive P cell destruction. All NOD mice display peri-insulitis, whereas intra-insulitis and overt Type 1 diabetes is restricted to about 70-80% of females and about 10-15% of males in the NOD mouse colony used in this instance. […] Mice which are examined and found to have evidence of insulitis, are then further scored as peri-islet (slight), less than 50% area of islet (medium) or more than 50% islet area (heavy), as indicative of the stage and/or severity of insulitis.
# [2] = tested on: mice (NOD); assay: Effect on insulitis in NOD mice dosed intraperitoneally; type: in vivo; details: intraperitoneal, from 4 weeks of age, 3 times a week for four weeks, assessed at 14 weeks
# Experimental: To investigate the effect of Vildagliptin or the combination “Vildagliptin+compound A” on insulitis or type I diabetes mellitus, mice (NOD) with a genetic predisposition to develop IDDM (insulin dependent diabetes mellitus) are treated with Vildagliptin or the combination “Vildagliptin+compound A”. The animals are dosed intraperitoneally from 4 weeks of age, 3 times a week for four weeks. Insulitis is assessed at 14 weeks and scored in a table. The mice are scored according to the method of Beales et al. (European Journal of Pharmacology 357 (1998) 221-225. 3 or more (DMSO and PBS) represents severe grade insulitis and 1-3 represents little infiltration (a score of 1 would represent low grade peri-insulitis).
smiles,measurement,setting,value
"N#C[C@@H]1CCCN1C(=O)CNC12CC3CC(CC(O)(C3)C1)C2 [vildagliptin, (S)-1-[(3-hydroxy-1-adamantyl)amino]acetyl-2-cyano-pyrrolidine]",insulitis (histological evidence within pancreatic islets),[1],unexpected good results in reducing insulitis
same,insulitis score,[2],unexpected good results in reducing insulitis
